Measurements reported in patent US10815221B2, “Crystal forms of an androgen receptor antagonist, preparation method and use thereof” (Crystal Pharmaceutical (Suzhou) Co., Ltd., priority 2016, dated 2020).
Values after ≈ are worked out from the molar mass of the structure shown. “Also recorded” adds a separate entry of the source.

Assays:
Assay type in all cases: physicochemical
[1] = Hygroscopicity by dynamic vapor sorption (DVS); settings: for Hygroscopicity / Weight gain under 80% RH: DVS, 80% RH; for Solid Form after DVS: XRPD after DVS test
Description: Dynamic vapor sorption (DVS) was applied to test hygroscopicity of Form B, Form C and crystalline form I in the prior art with about 10 mg of samples. The DVS plot of Form B is substantially as depicted in FIG. 10 and the XRPD pattern overlay before and after DVS test of Form B is substantially as depicted in FIG. 11. The DVS plot of Form C is substantially as depicted in FIG. 12 and the XRPD pattern overlay before and after DVS test of Form C is substantially as depicted in FIG. 13. The DVS plot of crystalline form I in the prior art is substantially as depicted in FIG. 14.

[2] = Storage stability of crystalline form (XRPD); settings: for Change of Solid Form: 3 months
Description: Samples of Form B were stored under different conditions of 25° C./60% RH (open), 40° C./75% RH (open) for 3 months, and XRPD was applied to test the crystalline form.
Samples of Form C were stored at 25° C./60% RH (open) for 1 month, and XRPD was applied to test the crystalline form.

[3] = Solubility in SGF, FeSSIF and FaSSIF by HPLC
Description: High Performance Liquid Chromatography (HPLC) data in the present disclosure are collected from Agilent 1260 with diode array detector (DAD).
The HPLC method parameters for solubility in the present disclosure are as follows:
1. Column: Agilent Infinity Lab Poroshell 120 EC-C18 150*3.0 mm, 2.7 μm
2. Mobile Phase: A: 25 mmol/L KH2PO4 aqueous solution
3. Flow rate: 0.7 mL/min 4. Injection Volume: 5 μL 5. Detection wavelength: 220 nm 6. Column Temperature: 40° C. 7. Diluent: Acetonitrile/H2O (v/v, 1/1)
(§1) Samples of Form B in the present disclosure and crystalline form I disclosed in WO2016120530A1 were suspended into SGF (simulated gastric fluids, pH=1.8), FeSSIF (Fed state simulated intestinal fluids, pH=5.0) and FaSSIF (Fasted state simulated intestinal fluids, pH=6.5) to get saturated solutions. After equilibrated for 1 hour and 4 hours, concentrations of the saturated solutions were measured by HPLC.
as §1, with “C” for “B”, “into” for “into SGF (simulated gastric fluids, pH=1.8),”

[4] = Particle size distribution (laser particle size analyzer); settings: for D10 / D50 / D90 / MV (average particle size by volume): wet process, Isopar G
Description: The particle size distribution test in the present disclosure is acquired by the S3500 laser particle size analyzer of Microtrac. Microtrac S3500 is equipped with the SDC (Sample Delivery Controller). The test is carried out by wet process, and the dispersion medium is Isopar G. The parameters are as follows:
The particle size distribution of Form B in the present disclosure and Form I disclosed in WO2016120530A1 were tested.

[5] = Grinding stability (XRPD before and after grinding); settings: manually ground in a mortar for 5 minutes
Description: About 20 mg of Form C in the present disclosure and crystalline form I disclosed in WO2016120530A1 were manually ground in a mortar for 5 minutes. XRPD tests of the samples before and after grinding were carried out. The XRPD patterns of Form C were shown in FIG. 20 (top: XRPD pattern after grinding, bottom: XRPD pattern before grinding), and the XRPD patterns of crystalline form I were shown in FIG. 21 (top: XRPD pattern after grinding, bottom: XRPD pattern before grinding).

Hygroscopicity [1] | Weight gain under 80% RH [1] [%] | Solid Form after DVS [1] | Time the form keeps stable ([2]; 25° C./60% RH) | Change of Solid Form ([2]; 25° C./60% RH (open)) | Time the form keeps stable ([2]; 40° C./75% RH) | Change of Solid Form ([2]; 40° C./75% RH (open)) | Solubility ([3]; FaSSIF pH=6.5, 1 hour) [µg/mL] | Solubility ([3]; FaSSIF pH=6.5, 4 hours) [µg/mL] | Solubility ([3]; FeSSIF pH=5.0, 1 hour) [µg/mL] | Solubility ([3]; SGF pH=1.8, 1 hour) [µg/mL] | Solubility ([3]; SGF pH=1.8, 4 hours) [µg/mL] | solubility at 4 h ([3]; fed state simulated intestinal fluid (FeSSIF), pH 5, fessif, thermodynamic from solid, FeSSIF pH=5.0, 4 hours) [µg/mL] | Particle size distribution pattern [4] | D10 [4] [μm] | D50 [4] [μm] | D90 [4] [μm] | MV (average particle size by volume) [4] [μm] | Solubility ([3]; FeSSIF pH=5.0, 4 hours) [µg/mL] | SMILES | Crystallinity after grinding [5]
slightly hygroscopic | 0.93 | remain unchanged; also recorded: Form B | at least 3 months | physically stable | at least 3 months | physically stable | 3.0 (≈ 7.52 µM) | 0.5 (≈ 1.25 µM) | 408.1 (≈ 1020 µM) | 62.7 (≈ 157 µM) | 33.5 (≈ 84 µM) | 288 (≈ 722 µM) | unimodal and normal distribution | 1.20 | 2.73 | 5.49 | 3.12 |  | CC(O)c1cc(C(=O)N[C@@H](C)Cn2ccc(-c3ccc(C#N)c(Cl)c3)n2)n[nH]1 (single isomer, unassigned) [Form B] | 
slightly hygroscopic | 1.60 | remain unchanged; also recorded: Form C | at least 1 month |  |  |  | 39.0 (≈ 97.8 µM) | 35.5 (≈ 89 µM) | 469.6 (≈ 1180 µM) |  |  |  |  |  |  |  |  | 163.1 (≈ 409 µM) | CC(O)c1cc(C(=O)N[C@@H](C)Cn2ccc(-c3ccc(C#N)c(Cl)c3)n2)n[nH]1 (single isomer, unassigned) [Form C] | remains good crystallinity after grinding
hygroscopic | >2.37 |  |  |  |  |  | 1.0 (≈ 2.51 µM) | 0.1 (≈ 0.251 µM) | 183.1 (≈ 459 µM) | 14.0 (≈ 35.1 µM) | 9.9 (≈ 24.8 µM) |  | bimodal distribution | 24.97 | 100.5 | 297.4 | 136.1 | 206.3 (≈ 517 µM) | CC(O)c1cc(C(=O)N[C@@H](C)Cn2ccc(-c3ccc(C#N)c(Cl)c3)n2)n[nH]1 (some centres unmarked) [Crystalline form I, reference compound] | decreased significantly
